System: ncRNAs (SEQ ID NO 28-89)
Assay: ncRNA arrays of melanocytes, keratinocytes, normal skin, melanoma cell lines and patient samples
Parameters: species or system human
Details: for ncRNA array expression, patient 2: melanoma patient 2 sample compared to normal skin; for ncRNA array expression, patient 3: melanoma patient 3 sample compared to normal skin; for ncRNA array expression, patient 4: melanoma patient 4 sample compared to normal skin; for ncRNA array expression, patient 5: melanoma patient 5 sample compared to normal skin; for ncRNA array expression, patient 6: melanoma patient 6 sample compared to normal skin; for ncRNA array expression, patient 7: melanoma patient 7 sample compared to normal skin; for ncRNA array expression, patient 8: melanoma patient 8 sample compared to normal skin; for ncRNA array expression, patient 9: melanoma patient 9 sample compared to normal skin; for ncRNA array expression, patient 10: melanoma patient 10 sample compared to normal skin; for ncRNA array expression, patient 19: melanoma patient 19 sample compared to normal skin; for ncRNA array expression, patient 20: melanoma patient 20 sample compared to normal skin; for ncRNA array expression, patient 21: melanoma patient 21 sample compared to normal skin; for ncRNA array expression, patient 22: melanoma patient 22 sample compared to normal skin; for ncRNA array expression, patient 23: melanoma patient 23 sample compared to normal skin; for ncRNA array expression, patient 24: melanoma patient 24 sample compared to normal skin; for ncRNA array expression, patient 25: melanoma patient 25 sample compared to normal skin; for ncRNA array expression, patient 26: melanoma patient 26 sample compared to normal skin; for ncRNA array expression, patient 27: melanoma patient 27 sample compared to normal skin; for ncRNA array expression, patient 28: melanoma patient 28 sample compared to normal skin; for ncRNA array expression, patient 29: melanoma patient 29 sample compared to normal skin; for ncRNA array expression, patient 30: melanoma patient 30 sample compared to normal skin
How it was run: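 Total RNA from melanocytes, keratinocytes, normal human skin, melanoma cell lines and melanoma patient samples was profiled on an array of >10,000 putative (>200 nt) human and mouse ncRNAs plus RefSeq mRNA probes. Expression was compared with melanocytes or normal skin, keratinocyte signatures were subtracted, and hits were validated by qRT-PCR and Northern blot.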

Row | Substance | ncRNA array expression, patient 2 | ncRNA array expression, patient 3 | ncRNA array expression, patient 4 | ncRNA array expression, patient 5 | ncRNA array expression, patient 6 | ncRNA array expression, patient 7 | ncRNA array expression, patient 8 | ncRNA array expression, patient 9 | ncRNA array expression, patient 10 | ncRNA array expression, patient 19 | ncRNA array expression, patient 20 | ncRNA array expression, patient 21 | ncRNA array expression, patient 22 | ncRNA array expression, patient 23 | ncRNA array expression, patient 24 | ncRNA array expression, patient 25 | ncRNA array expression, patient 26 | ncRNA array expression, patient 27 | ncRNA array expression, patient 28 | ncRNA array expression, patient 29 | also measured
1 | SEQ ID NO 47 (GTATTTGTAATATTTGATTTGCTTTTAGCAGAGAAAACAATAAAAGAATCCAGGAAAAGT; listed as DNA, chemistry not given here; listed as Homo sapiens) | −2.442 | −2.494 | −2.265 | −2.234 | −2.076 | −2.368 | −1.927 | −2.484 | −1.685 | −2.485 | −2.495 | −2.249 | −2.41 | −2.401 | −2.489 | −2.453 | −2.486 | −2.489 | −2.481 | −2.234 | ncRNA array expression, patient 30: −1.529
2 | SEQ ID NO 48 (ACTTATATTCAGAGCATGTGGATTGGGACTCTGAAGAACAACTTTATGGTGGACACCTTC; listed as DNA, chemistry not given here; listed as Homo sapiens) | 0.9515 | 3.672 | 3.353 | 0.2362 | −0.1733 | 0.648 | 3.309 | −0.2759 | 2.286 | 3.38 | 1.713 | 1.144 | −0.4681 | −0.4589 | 2.492 | 4.7 | 2.981 | 4.712 | 0.2102 | 0.1927 | ncRNA array expression, patient 30: −0.334
3 | SEQ ID NO 49 (CGATGGCTTGTCATTGTCCCCTGTCCTGGAACAATAAAGCAAGTGCCTTGTGGTCTCACT; listed as DNA, chemistry not given here; listed as Homo sapiens) | −3.131 | −1.901 | −2.3226 | −1.9036 | 0.7986 | −1.477 | −1.974 | −2.214 | −4.429 | −2.094 | −2.123 | −2.207 | −2.118 | −1.787 | −1.642 | −2.472 | −3.037 | −2.447 | −2.621 | −2.39 | ncRNA array expression, patient 30: −0.9259
4 | SEQ ID NO 50 (GTTATTATAACCAATGCAGACTTTAAAATCCCACCTGGACATCGGGTGAGAGGAGGAGGG; listed as DNA, chemistry not given here; listed as Homo sapiens) | −2.415 | −1.962 | −2.102 | −1.782 | −1.159 | −1.978 | −1.68 | −2.03 | −1.537 | −0.5347 | −1.776 | −1.854 | −1.427 | −0.1575 | −1.434 | −1.804 | −1.952 | −1.707 | −1.738 | −2.317 | ncRNA array expression, patient 30: −0.3312
5 | SEQ ID NO 51 (ATGTATTTTAGGTAATAAGATTTTTATCAATTGTGTCTTTTTCTTTCTTTGCTTTCTATA; listed as DNA, chemistry not given here; listed as Homo sapiens) | 0.8922 | 2.683 | 2.264 | 1.042 | 1.115 | 1.14 | 2.048 | 0.7789 | 0.8572 | 0.7228 | 1.113 | 1.298 | 0.5543 | 0.1918 | 1.761 | 2.552 | 1.145 | 1.166 | 0.879 | 0.7193 | ncRNA array expression, patient 30: −0.4325
6 | SEQ ID NO 52 (TTTTCTTAGTCTTTTTACTTTTTCCATTATATTCTTTGATATATTTGAGAAAATGGCTTG; listed as DNA, chemistry not given here; listed as Homo sapiens) | 2.853 | 1.986 | 3.663 | 1.552 | 0.7809 | 0.9779 | 2.426 | 0.8678 | 0.7332 | 0.9835 | −0.5729 | 0.7286 | −0.2277 | −0.706 | −0.4016 | 3.265 | 3.428 | 0.4479 | 2.064 | 1.478 | ncRNA array expression, patient 30: −0.5811
7 | SEQ ID NO 53 (ATATATTTAGATAGTACTATGTTTCGTTTTCTTCCGATTTCAGGGATCCTTTTGTCTTAC; listed as DNA, chemistry not given here; listed as Homo sapiens) | −2.867 | −2.306 | −2.08 | −2.02 | −1.882 | −2.068 | −1.878 | −2.195 | −3.16 | −2.319 | −1.903 | −2.124 | −2.7031 | −3.175 | −1.827 | −2.864 | −3.105 | −2.542 | −1.905 | −2.948 | ncRNA array expression, patient 30: −3.05
8 | SEQ ID NO 54 (TTTTTTTTCTTGTCCTATTACAACATTTTATAACCTTATGAATCAATGGATACTTTTATT; listed as DNA, chemistry not given here; listed as Homo sapiens) | 0.357 | 2.627 | 3.179 | 0.2547 | 0.568 | 1.3 | 1.144 | −0.1401 | 0.4363 | 3.034 | 1.876 | 1.299 | −0.2466 | 0.7631 | 2.124 | 3.287 | 2.689 | 4.17 | 1.501 | −0.1851 | ncRNA array expression, patient 30: −0.1125

Source: patent US20110143948A1, “MOLECULAR SIGNATURES AND BIOMARKERS ASSOCIATED WITH MELANOMA AND METHODS OF USE THEREOF” (priority 2008, published 2011)
